# Test system: Pseudomonas aeruginosa
# Test: Minimum inhibitory concentrations (MICs) against 20 strains of Pseudomonas aeruginosa in Blood Agar Base
# Assay type: cell-based
# Description: • a) The minimum inhibitory concentrations (MICs) of silver pseudomonate and sodium pseudomonate were determined against 20 strains of Pseudomonas aeruginosa in Blood Agar Base. […] Typical results are presented in Table 2. [formula] [formula]
substance,measurement,setting,value
Silver Pseudomonate A,minimum inhibitory concentrations (MICs),"20 strains of Pseudomonas aeruginosa, Blood Agar Base, comparison in words",more active than sodium pseudomonate against all strains tested
same,activity against Pseudomonas organisms,general statement in words,active

# Source: patent publication EP0128338A1, “Silver pseudomonate, compositions containing it and its use in treating pseudomonal infections” (BEECHAM GROUP PLC, priority 1983, dated 1984)
